Patent US11492361B2, “Compounds useful in HIV therapy” (GlaxoSmithKline Intellectual Property Development Limited, priority 2018, dated 2022)
Where a name gives a salt, the structure may show the parent alone.

Tested on: Jurkat HIV-luciferase clones
Experiment: Jurkat latency reversal assay
Type: cell-based
Settings: Homo sapiens, Jurkat, 48 h
Description: Jurkat HIV-luciferase clones were maintained in RPMI medium 1640 (Gibco by Life Technologies) containing 10% (vol/vol) fetal bovine serum (SAFC/Sigma-Aldrich) and 25 units/mL penicillin, 25 units/mL streptomycin (Gibco by Life Technologies), and were split 1:4 every 3 to 4 days to maintain a cell density of ˜0.3 to 1 million cells/mL. The Jurkat clones were maintained with the addition of 500 nM EFV in the medium. Three Jurkat cell clones (C16, I15, and N6), each harboring one or two integrated HIV proviruses expressing the luciferase reporter gene, were added at equal amounts for a total of 5,000 cells per well to 384-well plates containing compound titrations. Dose-response testing was performed on compounds dissolved in dimethyl sulfoxide (DMSO, Fisher Scientific, Merelbeke, Belgium) dispensed in duplicate serial 3-fold, 14-point titrations using a D300e Digital Droplet Dispenser (Hewlett-Packard) to give final assay concentrations of 10 μM to 2.1 pM in 50 μL of medium at 0.5% DMSO (vol/vol) final concentration. Cells and compound were incubated at 37° C. for 48 hours, unless otherwise indicated, followed by the addition of 20 μL of Steady-Glo® Luciferase (Promega). Luminescence resulting from the induction of the virally expressed luciferase was measured using an EnVision 2102 Multilabel Plate Reader (Perkin Elmer). Dose-response relationships were analyzed with GraphPad PRISM 6 using a four-parameter logistic regression model to calculate the concentration of compound that gives half-maximal response (EC50) and the maximal percent activation compared to the vehicle control.

Row | Compound | EC50 [nM]
1 | CN[C@@H](C)C(=S)N[C@H]1CCS[C@H]2CC(C)(C)[C@@H](C(=O)N[C@H](COCCCn3cc(COC[C@@H](NC(=O)[C@H]4N5C(=O)[C@@H](NC(=S)[C@H](C)NC)CCS[C@H]5CC4(C)C)c4ccccc4)nn3)c3ccccc3)N2C1=O [compound 53, (4S,7S,9aS)-N-[(1S)-2-[3-(4-{[(2S)-2-{[(4S,7S,9aS)-8,8-dimethyl-4-[(2S)-2-(methylamino)propanethioamido]-5-oxo-octahydropyrrolo[2,1-b][1,3]thiazepin-7-yl]formamido}-2-phenylethoxy]methyl}-1H-1,2,3-triazol-1-yl)propoxy]-1-phenylethyl]-8,8-dimethyl-4-[(2S)-2-(methylamino)propanethioamido]-5-oxo-octahydropyrrolo[2,1-b][1,3]thiazepine-7-carboxamide] | 178
2 | CN[C@@H](C)C(=O)N[C@H]1CCS[C@H]2CC(C)(C)[C@@H](C(=O)N[C@H](C(=O)NCC#CC#CCNC(=O)[C@@H](NC(=O)[C@H]3N4C(=O)[C@@H](NC(=S)[C@H](C)NC)CCS[C@H]4CC3(C)C)c3ccccc3)c3ccccc3)N2C1=O [compound 31, (4S,7S,9aS)-N-((S)-2-((6-((S)-2-((4S,7S,9aS)-8,8-dimethyl-4-((S)-2-(methylamino)propanamido)-5-oxooctahydropyrrolo[2,1-b][1,3]thiazepine-7-carboxamido)-2-phenylacetamido)hexa-2,4-diyn-1-yl)amino)-2-oxo-1-phenylethyl)-8,8-dimethyl-4-((S)-2-(methylamino)propanethioamido)-5-oxooctahydropyrrolo[2,1-b][1,3]thiazepine-7-carboxamide dihydrochloride] | 25.8
3 | CN[C@@H](C)C(=O)N[C@H]1CCS[C@H]2CC(C)(C)[C@@H](C(=O)N[C@H](COCCCCOC[C@@H](NC(=O)[C@H]3N4C(=O)[C@@H](NC(=O)[C@H](C)NC)CCS[C@H]4CC3(C)C)c3ccccc3)c3ccccc3)N2C1=O [compound 36, (4S,4′S,7S,7′S,9aS,9a′S)-N,N′-((1S,1′S)-(butane-1,4-diylbis(oxy))bis(1-phenylethane-2,1-diyl))bis(8,8-dimethyl-4-((S)-2-(methylamino)propanamido)-5-oxooctahydropyrrolo[2,1-b][1,3]thiazepine-7-carboxamide) dihydrochloride] | 9.5
4 | CN[C@@H](C)C(=S)N[C@H]1CCS[C@H]2CC(C)(C)[C@@H](C(=O)N[C@H](C(=O)NCC#CC#CCNC(=O)[C@@H](NC(=O)[C@H]3N4C(=O)[C@@H](NC(=S)[C@H](C)NC)CCS[C@H]4CC3(C)C)c3ccccc3)c3ccccc3)N2C1=O [compound 32, (4S,4′S,7S,7′S,9aS,9a′S)-N,N′-((1S,1′S)-(hexa-2,4-diyne-1,6-diylbis(azanediyl))bis(2-oxo-1-phenylethane-2,1-diyl))bis(8,8-dimethyl-4-((S)-2-(methylamino)propanethioamido)-5-oxooctahydropyrrolo[2,1-b][1,3]thiazepine-7-carboxamide)] | 166
5 | CN[C@@H](C)C(=O)N[C@H]1CCS[C@H]2CC(C)(C)[C@@H](C(=O)N[C@H]3c4ccccc4C[C@H]3C(=O)NCC#CC#CCNC(=O)[C@@H]3Cc4ccccc4[C@@H]3NC(=O)[C@H]3N4C(=O)[C@@H](NC(=O)[C@H](C)NC)CCS[C@H]4CC3(C)C)N2C1=O [compound 49, (4S,7S,9aS)-N-[(1R,2R)-2-[(6-{[(1R,2R)-1-[(4S,7S,9aS)-8,8-dimethyl-4-[(2S)-2-(methylamino)propanamido]-5-oxo-octahydropyrrolo[2,1-b][1,3]thiazepine-7-amido]-2,3-dihydro-1H-inden-2-yl]formamido}hexa-2,4-diyn-1-yl)carbamoyl]-2,3-dihydro-1H-inden-1-yl]-8,8-dimethyl-4-[(2S)-2-(methylamino)propanamido]-5-oxo-octahydropyrrolo[2,1-b][1,3]thiazepine-7-carboxamide] | 466
6 | CN[C@@H](C)C(=S)N[C@H]1CCS[C@H]2CC(C)(C)[C@@H](C(=O)N[C@H](C(=O)NCc3ccc(CNC(=O)[C@@H](NC(=O)[C@H]4N5C(=O)[C@@H](NC(=S)[C@H](C)NC)CCS[C@H]5CC4(C)C)c4ccccc4)cc3)c3ccccc3)N2C1=O [compound 25, (4S,4′S,7S,7′S,9aS,9a′S)-N,N′-((1S,1′S)-((1,4-phenylenebis(methylene))bis(azanediyl))bis(2-oxo-1-phenylethane-2,1-diyl))bis(8,8-dimethyl-4-((S)-2-(methylamino)propanethioamido)-5-oxooctahydropyrrolo[2,1-b][1,3]thiazepine-7-carboxamide) dihydrochloride] | 61.8
7 | CN[C@@H](C)C(=O)N[C@H]1CCS[C@H]2CC(C)(C)[C@@H](C(=O)N[C@H]3c4ccccc4C[C@H]3OCCCCO[C@@H]3Cc4ccccc4[C@@H]3NC(=O)[C@H]3N4C(=O)[C@@H](NC(=O)[C@H](C)NC)CCS[C@H]4CC3(C)C)N2C1=O [compound 16, (4S,4′S,7S,7′S,9aS,9a′S)-N,N′-((1S,1′S,2R,2′R)-(butane-1,4-diylbis(oxy))bis(2,3-dihydro-1H-indene-2,1-diyl))bis(8,8-dimethyl-4-((S)-2-(methylamino)propanamido)-5-oxooctahydropyrrolo[2,1-b][1,3]thiazepine-7-carboxamide)] | 10.1
8 | CN[C@@H](C)C(=O)N[C@H]1CCS[C@H]2CC(C)(C)[C@@H](C(=O)N[C@H](COCCCCCCCCCCCCOC[C@@H](NC(=O)[C@H]3N4C(=O)[C@@H](NC(=O)[C@H](C)NC)CCS[C@H]4CC3(C)C)c3ccccc3)c3ccccc3)N2C1=O [compound 61, (4S,4′S,7S,7′S,9aS,9a′S)-N,N′-((1S,1′S)-(dodecane-1,12-diylbis(oxy))bis(1-phenylethane-2,1-diyl))bis(8,8-dimethyl-4-((S)-2-(methylamino)propanamido)-5-oxooctahydropyrrolo[2,1-b][1,3]thiazepine-7-carboxamide)] | 11.8
9 | CN[C@@H](C)C(=O)N[C@H]1CCS[C@H]2CC(C)(C)[C@@H](C(=O)N[C@H]3c4ccccc4C[C@H]3OCCCCCCCCO[C@@H]3Cc4ccccc4[C@@H]3NC(=O)[C@H]3N4C(=O)[C@@H](NC(=O)[C@H](C)NC)CCS[C@H]4CC3(C)C)N2C1=O [compound 63, (4S,4′S,7S,7′S,9aS,9a′S)-N,N′-((1S,1′S,2R,2′R)-(octane-1,8-diylbis(oxy))bis(2,3-dihydro-1H-indene-2,1-diyl))bis(8,8-dimethyl-4-((S)-2-(methylamino)propanamido)-5-oxooctahydropyrrolo[2,1-b][1,3]thiazepine-7-carboxamide) dihydrochloride] | 11.6
10 | CN[C@@H](C)C(=O)N[C@H]1CCS[C@H]2CC(C)(C)[C@@H](C(=O)N[C@H]3c4ccccc4C[C@H]3OCCOCCO[C@@H]3Cc4ccccc4[C@@H]3NC(=O)[C@H]3N4C(=O)[C@@H](NC(=O)[C@H](C)NC)CCS[C@H]4CC3(C)C)N2C1=O [compound 18, (4S,4′S,7S,7′S,9aS,9a′S)-N,N′-((1S,1′S,2R,2′R)-((oxybis(ethane-2,1-diyl))bis(oxy))bis(2,3-dihydro-1H-indene-2,1-diyl))bis(8,8-dimethyl-4-((S)-2-(methylamino)propanamido)-5-oxooctahydropyrrolo[2,1-b][1,3]thiazepine-7-carboxamide) dihydrochloride] | 22.3
